This note sets out measurements from US8232283B2, “Raf inhibitors” (Forma Therapeutics, Inc., priority 2008, dated 2012).

Like-named read-outs stand apart in the source and are kept apart here. Some results are limits rather than exact numbers.

Test [1] addresses T1, C-Raf (Homo sapiens, UniProt P04049).
T1 construct: purchased Proteros biostructures GmbH (selectivity panel service)
Briefly: Biochemical inhibition, standard selectivity panel (Proteros). On the set-up: dose or concentration left out as unconfirmed. The procedure: (§1) For example, selected compound of the present invention were tested in a standard selectivity panel including c-Raf, p38, and 22 other kinases (Proteros biostructures GmbH, Martinsried/Munich, Germany), under conditions of non-disclosure, non-dissemination and non-use.
(§2) In brief, selected compounds of the present invention were tested […] in triplicates against c-Raf, p38 as well as against Ab1, Akt1, Aur A, c-Kit, c-Raf, Cdk1/CycB, Chk1, FGFR3, Flt3, Fyn, IGF1-R, INSR, Lyn, MAPK-ERK1, PAK-4, PKCalpha, Plk1, Ret, ROCK2, RSK 1, c-Src, TIE2, and VEGF-R2.

Test [2] addresses T2, p38 (Homo sapiens, UniProt Q16539).
T2 construct: purchased Proteros biostructures GmbH (selectivity panel service)
Described as above. On the set-up: dose or concentration left out as unconfirmed. The procedure:
as §1, §2

For test [3], the target named is B-Raf (Homo sapiens, UniProt P15056). Briefly: SelectScreen Kinase Profiling Service (Invitrogen), IC50 with or without 5 h preincubation of kinase/test compound. It counts as biochemical. As for the experimental part:
(§3) d) B-Raf/B-Raf (V600E) (SelectScreen™ Assay)
(§4) Selected compound of the present invention were tested in the Select Screen™ Kinase Profiling Service (Invitrogen Corporation, Madison, Wis. 53719, USA) against B-Raf and the B-Raf (V600E) [“V599E” in terminology used by Invitrogen], under conditions of non-disclosure, non-dissemination and non-use.
(§5) In brief, compounds 11 and 39 (see Table 1) were tested at Invitrogen against B-Raf and the B-Raf (V600E), either with or without preincubation of kinase/test compound for 5 hours.

In test [4] the target is B-Raf (V600E) (Homo sapiens, UniProt P15056, V600E). The test is described as above. It counts as biochemical. The procedure:
as §3, §4, §5

Test [5] concerns HT-29 [B-Raf V600E mutant]. Put plainly: Anti-proliferative activity, SRB assay, 72 hours. It counts as cell-based. The note with it: Homo sapiens, read-out: CELLULAR IC50 [μM] HT-29 [B-Raf V600E mutant]. The essentials: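 HT-29 cells, plated 24 h before dosing, exposed to a concentration range of compound for 72 h. Proliferation measured by sulforhodamine B staining after TCA fixation, absorbance at 520 nm; % inhibition versus DMSO-treated cells used to estimate IC50.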

Test [6] deals with A-431 [B-Raf wildtype]. Put plainly: Anti-proliferative activity, SRB assay, 72 hours. It counts as cell-based. The note with it: Homo sapiens, read-out: CELLULAR IC50 [μM] A-431 [B-Raf wildtype]. The essentials:
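Cells seeded 24 h before compound, then exposed to a concentration range for 72 h. TCA-fixed, stained with sulforhodamine B, bound dye solubilized in 10 mM Trizma and read at OD520. IC50 from % inhibition of proliferation vs DMSO-treated cells.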

Setting [7] is: 5 h preincubation of kinase/test compound, read-out: IC50 [nM] B-Raf 5 h preincub.
Setting [8] is: without preincubation of kinase/test compound, read-out: IC50 [nM] B-Raf w/o preincub.
[9] abbreviates: 5 h preincubation of kinase/test compound, read-out: IC50 [nM] B-Raf (V600E) 5 h preincub.
[10] abbreviates: without preincubation of kinase/test compound, read-out: IC50 [nM] B-Raf (V600E) w/o preincub.

Sequence of B-Raf (P15056 whole entry): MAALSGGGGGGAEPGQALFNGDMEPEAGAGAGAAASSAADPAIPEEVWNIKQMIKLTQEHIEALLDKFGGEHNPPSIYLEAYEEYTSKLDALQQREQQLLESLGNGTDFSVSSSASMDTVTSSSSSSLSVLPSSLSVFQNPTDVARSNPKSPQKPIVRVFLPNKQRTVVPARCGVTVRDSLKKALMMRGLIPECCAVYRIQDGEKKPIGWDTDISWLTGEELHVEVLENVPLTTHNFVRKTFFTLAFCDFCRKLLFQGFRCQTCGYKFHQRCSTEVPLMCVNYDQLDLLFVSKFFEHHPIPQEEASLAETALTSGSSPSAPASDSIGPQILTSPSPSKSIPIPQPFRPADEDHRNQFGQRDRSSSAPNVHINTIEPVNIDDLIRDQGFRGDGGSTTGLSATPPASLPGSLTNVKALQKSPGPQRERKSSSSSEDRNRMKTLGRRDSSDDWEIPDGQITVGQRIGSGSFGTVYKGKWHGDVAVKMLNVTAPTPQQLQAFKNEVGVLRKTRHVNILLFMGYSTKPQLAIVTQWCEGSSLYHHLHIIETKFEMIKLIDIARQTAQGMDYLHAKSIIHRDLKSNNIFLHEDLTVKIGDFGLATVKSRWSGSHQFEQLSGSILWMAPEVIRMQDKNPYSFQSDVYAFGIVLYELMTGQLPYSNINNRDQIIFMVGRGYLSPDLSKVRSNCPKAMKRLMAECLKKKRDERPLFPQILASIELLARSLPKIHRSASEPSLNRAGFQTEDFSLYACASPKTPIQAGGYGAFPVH
Sequence of B-Raf (V600E) (P15056 whole entry V600E): as the sequence (P15056 whole entry) above, with V600E counted along it
T1 sequence (P04049 whole entry): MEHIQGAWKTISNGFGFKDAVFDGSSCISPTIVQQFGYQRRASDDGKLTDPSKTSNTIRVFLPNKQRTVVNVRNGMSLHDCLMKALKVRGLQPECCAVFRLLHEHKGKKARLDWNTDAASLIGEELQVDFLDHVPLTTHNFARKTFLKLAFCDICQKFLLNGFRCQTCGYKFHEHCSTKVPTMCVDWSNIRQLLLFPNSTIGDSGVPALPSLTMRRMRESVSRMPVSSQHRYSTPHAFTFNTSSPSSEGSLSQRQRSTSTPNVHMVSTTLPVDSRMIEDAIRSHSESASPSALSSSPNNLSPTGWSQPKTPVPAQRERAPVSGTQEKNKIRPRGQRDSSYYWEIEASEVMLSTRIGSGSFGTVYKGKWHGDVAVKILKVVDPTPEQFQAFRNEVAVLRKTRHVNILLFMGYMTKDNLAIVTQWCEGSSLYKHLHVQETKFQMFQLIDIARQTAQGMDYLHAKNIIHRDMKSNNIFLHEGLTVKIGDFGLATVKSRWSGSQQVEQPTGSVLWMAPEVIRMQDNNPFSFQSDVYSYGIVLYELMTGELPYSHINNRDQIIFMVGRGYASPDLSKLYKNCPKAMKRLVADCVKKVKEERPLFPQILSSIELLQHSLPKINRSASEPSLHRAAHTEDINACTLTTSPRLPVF
T2 sequence (Q16539 whole entry): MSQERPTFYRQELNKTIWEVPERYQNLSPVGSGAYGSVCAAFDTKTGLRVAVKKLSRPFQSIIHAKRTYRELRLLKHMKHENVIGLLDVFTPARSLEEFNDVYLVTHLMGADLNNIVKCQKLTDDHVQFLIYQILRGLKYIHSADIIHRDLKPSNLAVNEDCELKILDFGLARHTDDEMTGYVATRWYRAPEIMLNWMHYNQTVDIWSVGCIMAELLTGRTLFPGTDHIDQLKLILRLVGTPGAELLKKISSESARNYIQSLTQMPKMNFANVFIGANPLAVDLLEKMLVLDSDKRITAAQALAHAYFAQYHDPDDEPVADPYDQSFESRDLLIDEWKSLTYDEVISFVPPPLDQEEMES

With `COn1c(=O)c(-c2cc(NC(=O)c3cccc(C(F)(F)F)c3F)ccc2Cl)cc2cnc(NCCN(C)C)nc21` [Compound 39, N-{4-Chloro-3-[2-(2-dimethylamino-ethylamino)-8-methoxy-7-oxo-7,8-dihydro-pyrido[2,3-d]pyrimidin-6-yl]-phenyl}-2-fluoro-3-trifluoromethyl-benzamide], the inhibition in test [1] and in test [2] was more than 70% throughout. Further, the IC50 in test [3] (setting [7]) was less than 10 nM; in test [3] (setting [8]), less than 10 nM; in test [4] (setting [9]), less than 5 nM; in test [4] (setting [10]), less than 5 nM; in test [5] it was less than 5 µM; in test [6] it was more than 10 µM.

Regarding `COn1c(=O)c(-c2cc(NC(=O)c3cc(C(C)(C)C)nn3C)ccc2Cl)cc2cnc(NCCN(C)C)nc21` [Compound 11, 5-tert-Butyl-2-methyl-2H-pyrazole-3-carboxylic acid {4-chloro-3-[2-(2-dimethylamino-ethylamino)-8-methoxy-7-oxo-7,8-dihydro-pyrido[2,3-d]pyrimidin-6-yl]-phenyl}-amide], the IC50 is less than 250 nM in test [3] (setting [7]); less than 250 nM in test [3] (setting [8]); less than 100 nM in test [4] (setting [9]); less than 100 nM in test [4] (setting [10]); less than 10 µM in test [5]; more than 10 µM in test [6].

Regarding `COn1c(=O)c(-c2cc(NC(=O)Nc3ccc(C(F)(F)F)cc3)ccc2Cl)cc2cnc(NCCN(C)C)nc21` [Compound 41, 1-{4-Chloro-3-[2-(2-dimethylamino-ethylamino)-8-methoxy-7-oxo-7,8-dihydro-pyrido[2,3-d]pyrimidin-6-yl]-phenyl}-3-(4-trifluoromethyl-phenyl)-urea], the inhibition in test [1] and in test [2] was more than 70% in each case. The IC50 in test [5] is less than 5 µM; in test [6], less than 10 µM.

Take `COn1c(=O)c(-c2cc(NC(=O)c3ccc(OCc4cccc(F)c4)c(Cl)c3)ccc2Cl)cc2cnc(NCCN(C)C)nc21` [Compound 32, 3-Chloro-N-{4-chloro-3-[2-(2-dimethylamino-ethylamino)-8-methoxy-7-oxo-7,8-dihydro-pyrido[2,3-d]pyrimidin-6-yl]-phenyl}-4-(3-fluoro-benzyloxy)-benzamide]: the inhibition in test [1] and in test [2] was more than 70% throughout. The IC50 is less than 5 µM in test [5] and less than 10 µM in test [6].

For `COn1c(=O)c(-c2cc(NC(=O)c3ccc(Oc4ccccc4)cc3)ccc2Cl)cc2cnc(NCCN(C)C)nc21` [Compound 27, N-{4-Chloro-3-[2-(2-dimethylamino-ethylamino)-8-methoxy-7-oxo-7,8-dihydro-pyrido[2,3-d]pyrimidin-6-yl]-phenyl}-4-phenoxy-benzamide], the inhibition in test [1] and in test [2] was more than 70% in each case. Moreover, the IC50 in test [5] is less than 5 µM; in test [6], less than 10 µM.
